Experimental data from PubChem BioAssay (NCI).
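48-hour exposure; five concentrations; linearly interpolated endpoints. GI50 marks 50% less growth. TGI: concentration producing complete growth inhibition.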

Key:
Assay in all cases: NCI-60 cell line screen, 48 h
[1] = tested on: HT29 colon
[2] = tested on: LOX IMVI melanoma
[3] = tested on: NCI-H522 lung
[4] = tested on: PC-3 prostate
[5] = tested on: DU-145 prostate
[6] = tested on: RXF 393 renal
[7] = tested on: HCT-15 colon
[8] = tested on: HCT-116 colon
[9] = tested on: HL-60(TB) leukemia
[10] = tested on: EKVX NSCLC

Structure (SMILES): Cc1c(-c2ccccc2)nn2cc(-c3ccccc3)nnc12
- TGI [1]: > 100 µM
- TGI [2]: 41.1 µM
- TGI [3]: 55 µM
- TGI [4]: > 100 µM
- TGI [5]: > 100 µM
- TGI [6]: 47.8 µM
- TGI [7]: 44.5 µM
- TGI [8]: > 100 µM

Structure (SMILES): O=C1C=C2SC3C[C@@]24CC1[N+]1=c2c4c(c(O)c4c2=C(C=N4)CC1)N3
- TGI [1]: > 26 µM
- TGI [9]: 3.78 µM
- TGI [10]: 4.8 µM
- TGI [2]: 6.65 µM
- TGI [3]: 2.99 µM
- TGI [6]: 3.84 µM
- TGI [7]: 13.7 µM
- TGI [8]: 3.35 µM

Structure (SMILES): O=c1cc(NNc2cccc(F)c2)[nH]c(=O)[nH]1
- TGI [1]: 29.9 µM
- TGI [9]: 44.6 µM
- TGI [2]: 36.9 µM
- TGI [3]: 35.3 µM
- TGI [4]: > 100 µM
- TGI [5]: > 100 µM
- TGI [6]: 35.1 µM
- TGI [7]: 30.9 µM
- TGI [8]: 31 µM

Structure (SMILES): COc1cc(C2c3cc4c(cc3OC(Nc3ccccc3)C2C)OCO4)cc(OC)c1O (configuration not stated)
- TGI [1]: 18.1 µM
- TGI [9]: 4.34 µM
- TGI [3]: 9.16 µM
- TGI [4]: 13.4 µM
- TGI [5]: 19.6 µM
- TGI [6]: 19.7 µM
- TGI [7]: 17.5 µM
- TGI [8]: 16 µM

Structure (SMILES): COc1ccc(-c2ccc(-c3ccc(C(=N)N)nc3)s2)cc1Cl
- GI50 [4]: 1780 nM
- TGI [4]: 3.49 µM
- GI50 [5]: 1770 nM
- TGI [5]: 3.15 µM
- GI50 [6]: 1760 nM
- TGI [6]: 3.23 µM

Structure (SMILES): CN(CCO)CCCC1COc2ccccc2O1 (configuration not stated)
- TGI [1]: > 100 µM
- TGI [9]: > 100 µM
- TGI [10]: > 100 µM
- TGI [3]: > 100 µM
- TGI [4]: > 100 µM
- TGI [5]: > 100 µM
- TGI [6]: > 100 µM
- TGI [7]: > 100 µM
- TGI [8]: > 100 µM

Structure (SMILES): O=c1[nH]c2ccccc2c(O)c1/C=N/C(=S)NCc1ccccc1
- TGI [1]: > 100 µM
- TGI [9]: > 100 µM
- TGI [10]: > 100 µM
- TGI [2]: > 100 µM
- TGI [4]: > 100 µM
- TGI [5]: > 100 µM
- TGI [8]: > 100 µM

Structure (SMILES): C/C(=C\c1ccccc1)C(=O)NCc1ccc(C(=O)NCCc2ccccc2)cc1
- TGI [1]: 6.81 µM
- TGI [10]: > 100 µM
- TGI [2]: > 100 µM
- TGI [3]: > 100 µM
- TGI [4]: > 100 µM
- TGI [5]: > 100 µM
- TGI [6]: 41.4 µM
- TGI [7]: > 100 µM
- TGI [8]: > 100 µM

Structure (SMILES): CCCCCCNC(=O)CCC(NC(=O)c1ccc(N(C)Cc2cnc3nc(N)nc(N)c3n2)cc1)C(=O)NCCCCCC (configuration not stated)
- TGI [1]: > 100 µM
- TGI [10]: > 100 µM
- TGI [2]: > 100 µM
- TGI [3]: > 100 µM
- TGI [4]: > 100 µM
- TGI [5]: > 100 µM
- TGI [6]: > 100 µM
- TGI [7]: > 100 µM
- TGI [8]: > 100 µM

Structure (SMILES): COc1cc([C@@H]2c3cc4c(cc3[C@@H](Nc3ccccc3C(=O)c3ccccc3)[C@H]3COC(=O)[C@H]23)OCO4)cc(OC)c1OC
- TGI [10]: > 100 µM
- TGI [2]: > 100 µM
- TGI [3]: 2.07 µM
- TGI [4]: > 78.7 µM
- TGI [5]: > 100 µM
- TGI [6]: > 100 µM
- TGI [7]: 1.18 µM
- TGI [8]: > 100 µM

Structure (SMILES): CCCCCCCCCCCCc1ccc(S(=O)(=O)O)cc1.[Zn+2]
- TGI [1]: > 100 µM
- TGI [9]: > 100 µM
- TGI [10]: > 100 µM
- TGI [2]: > 100 µM
- TGI [4]: > 100 µM
- TGI [5]: > 100 µM
- TGI [6]: > 100 µM
- TGI [7]: > 100 µM
- TGI [8]: > 100 µM

Structure (SMILES): CC1(C)C(CCO)CC1n1cc(I)c(=O)[nH]c1=O (configuration not stated)
- TGI [10]: > 100 µM
- TGI [2]: > 100 µM
- TGI [4]: > 100 µM
- TGI [5]: > 100 µM
- TGI [6]: > 100 µM
- TGI [7]: > 100 µM
- TGI [8]: > 100 µM
